Measurements reported in the NIST ThermoML archive (doi:10.1016/j.fluid.2005.05.023).

Experiment: xn = mol fraction of the nth substance listed
Settings: Liquid, Vibrating tube method, x1 = 1

CCO [ethanol] + Cc1ccccc1
mass density [kg/m3]
Settings	100 kPa	5000 kPa	10000 kPa	15000 kPa	20000 kPa	25000 kPa	30000 kPa	35000 kPa	40000 kPa	45000 kPa
283.15 K	798	802	805.9	809.5	813	816.4	819.7	822.8	825.9	828.8
293.15 K	789.5	793.7	797.8	801.6	805.3	808.9	812.3	815.6	818.7	821.8
303.15 K	780.9	785.3	789.6	793.7	797.5	801.3	804.8	808.2	811.5	814.7
313.15 K	772.1	776.8	781.3	785.6	789.6	793.5	797.2	800.8	804.2	807.6
323.15 K	763.3	768.3	773	777.6	781.8	785.9	789.7	793.5	797.1	800.5
333.15 K	754	759.3	764.3	769.1	773.6	777.8	781.9	785.8	789.5	793.1
343.15 K	744.5	750.1	755.5	760.5	765.3	769.8	774	778.1	782	785.7
353.15 K	–	740.6	746.4	751.7	756.7	761.5	766	770.2	774.3	778.2
